Measurements published in patent publication US20240025849A1 (MAX DELBRÜCK-CENTRUM FÜR MOLEKULARE MEDIZIN IN DER …, priority 2020, published 2024).
“Also recorded” adds a separate entry of the source.

Assays:
[1] = Intravenous tissue distribution study in mice; assay type: in vivo, mouse
[2] = tested on: bone marrow derived macrophages; experiment: AlamarBlue assay (metabolic activity) in macrophages; assay type: cell-based, mouse; settings: for cell (metabolic) activity, % of positive control: 1 μg/mL LPS 48 hours
Method: Primary cultured macrophages. Bone marrow macrophages were isolated from C57BL/6 adult mice ([…]-56) as previously described (Marim et al., 2010). In summary, mice were killed by cervical dislocation and the femurs were removed by cutting through the tibia near the pelvic bone and below the knee. Any muscle connected to the bone was carefully removed. Ice cold sterile PBS was slowly flushed through the bone and the contents were collected in a sterile 15 mL polypropylene tube on ice. After centrifugation for 10 min at 200 g at 4° C., red blood cells were lysed by adding 3-10 mL ammonium chloride solution. After a 3-5 min recovery period, the suspension was centrifuged for 10 min at 200 g at 4° C. and the supernatant was removed. Cells were plated in a 10 cm dish with plain medium containing 10 ng/mL M-CSF and cultured for 7 days to allow differentiation. 50 000 cells were plated with 200 μL medium per well in a 96 well plate. AlamarBlue assay. Cells were seeded according to the protocols described above, after compounds and stimuli were added, the cells were washed once with HBSS (37° C.) and 100 μl of a 1:10 AlamarBlue (Thermo Fisher Scientific) dilution in plain medium was added. The conversion of resazurin to resorufin was measured by absorbance (absorbance wavelength of 570 nm and a reference wavelength of 600 nm) after 3 hours.

Microglial cells = experiment: Microchemotaxis assay (Boyden chamber): chemotaxis and motility; assay type: cell-based, mouse
Method: Microchemotaxis assay. The effect of the compound on directed migration and general motility was tested using a 48-well microchemotaxis Boyden chamber (Neuroprobe, Gaithersburg, USA). Upper and lower wells were separated by polycarbonate filter (8 μm pore size; Poretics). Microglial cells (2-4×10^4 cells) in 50 μl plain medium were added to the upper compartment. In addition, 2.5 μM of compound in DMSO, 125×10-5 v/v DMSO respectively, and/or 100 μM ATP were added to the upper and/or lower chamber, as shown in FIG. 3A. Plain medium was used as a control. The chamber was incubated at 37° C. and 5% CO2 for 6 h. Cells remaining on the upper surface of the membrane were removed by wiping, and cells in the lower compartment were fixed in methanol for 10 min and subjected to Diff-Quik stain (Medion Grifols Diagnostics AG, Dudingen, Switzerland). The rate of microglial migration was calculated by counting cells in four random fields of each well using a 20×bright-field objective. All data were normalised to ATP induced chemotaxis.

[3] = tested on: C57Bl/6 mice after 30 minutes MCAO; experiment: Middle cerebral artery occlusion (MCAO) model of mild ischemic injury; assay type: in vivo, mouse; settings: 5 mg/kg i.p. daily
Method: Animals and Group Allocation for middle cerebral artery occlusion (MCAO) study. C57BL/6 (13 weeks old, Charles River, Germany) male mice were handled according to governmental (LaGeSo-G0249/15) and internal (MDC/Charitd) rules and regulations, having free access to food and water. A total of 24 male mice were analysed after a 30 minutes of left-sided MCAO. Animals were randomly attributed to treatment paradigms, and experimenters were blinded at all stages of interventions. The mice were injected intraperitoneally (i.p.) every day for the 7 days, subsequently of the behavioral tests, with the compound (n=11) or with the vehicle ([…], n=13).
Induction of cerebral ischemia. Mice were anesthetized for induction with 3-4% isoflurane and maintained in 1.5% isoflurane in 70% N2O and 30% O2 using a vaporizer. MCAO was essentially performed as described elsewhere (Endres et al., 2000). In brief, brain ischemia was induced with a silicone rubber-coated monofilament 7-0, diameter 0.06-0.09 mm, length 20 mm; diameter with coating […]; coating length 9-10 mm. The filament was introduced into the internal carotid artery up to the anterior cerebral artery. Thereby, the middle cerebral artery and anterior choroidal arteries were occluded. The filament was removed after 30 min to allow reperfusion.
MRI was performed using a 7 Tesla rodent scanner (Pharmascan 70/16, Bruker BioSpin, Bruker, Billerica, USA) with a 16 cm horizontal bore magnet and a 9 cm (inner diameter) shielded gradient with an H-resonance-frequency of 300 MHz and a maximum gradient strength of 300 mT/m. For imaging a 20 mm-1H-RF quadrature-volume resonator with an inner diameter of 20 mm was used. Data acquisition and image processing were carried out with the Bruker software Paravision 5.1. During the examinations mice were placed on a heated circulating water blanket to ensure constant body temperature of 37° C. Anaesthesia was induced with 2.5% and maintained with 2.0-1.5% isoflurane (Forene, Abbot, Wiesbaden, Germany) delivered in an O2/N2 mixture (0.3/0.7 L/min) via a facemask under constant ventilation monitoring (Small Animal Monitoring & Gating System, SA Instruments, New York, USA). For imaging the mouse brain a T2-weighted 2D turbo spin-echo sequence was used (imaging parameters TR/TE=4200/36 ms, rare factor 8, 4 averages, 32 axial slices with a slice thickness of 0.5 mm, field of view of 2.56×2.56 cm, matrix size 256×256).
Calculation of lesion volume was carried out with the program Analyze 10.0 (AnalyzeDirect, Inc., Overland Park, USA). The hyperintense ischemic areas in axial T2-weighted images were assigned with a region of interest tool. This enables threshold based segmentation by connecting all pixels within a specified threshold range about the selected seed pixel and results in 3D object map of the whole stroke region. Further the total volume of the whole object map was automatically calculated.
The Rotarod test was performed to access motor coordination using a treadmill with a diameter of 3 cm (TSE Systems, Chesterfield, USA). This test was performed with accelerating velocity (4-40 rpm) and maximal velocity was achieved after 300 s. The time until the animals dropped was measured. Animals were trained on day 2 and 3 before MCAO and baseline was taken on the day before MCAO. Tests were always performed four times and means were used for statistical analysis.
A vertical pole (80 cm high with rough surface) was used for this test, to analyse extrapyramidal motor locomotion. Mice were placed head upward on the top of the pole. The time taken to orientate the body completely downwards, making a 180° turn (t turn), and to reach the floor with all four paws (t down) were recorded. If the animal was unsuccessful for either task, it was scored the maximum time that any other animal from the same experimental group took to perform the task. Animals were trained on day 2 and 3 before MCAO and baseline was taken on the day before MCAO. […]

COc1ccc(NC(=O)C(NC(=O)C2CCCN2C(=O)OCc2ccccc2)c2ccc(OC)cc2)cc1 (stereo not shown) [C1]
passage of the blood brain barrier ([1]; 5 mg/kg intravenous): passes the blood brain barrier | concentration in brain ([1]; 30 minutes after 5 mg/kg intravenous): 1 μM/g tissue | concentration in brain ([1]; 4 hours after 5 mg/kg intravenous): 2.4 nM/g tissue | cell (metabolic) activity, % of positive control ([2]; 0.025 μM C1): 78.47±31.61% | metabolic activity of PolyIC stimulated macrophages ([2]; 0.025 μM C1, 100 μg/mL PolyIC 24 hours): reduction of metabolic activity; also recorded: deceased significantly | cell (metabolic) activity, % of positive control ([2]; 0.25 μM C1): 69.31±36.50% | metabolic activity of IFNγ stimulated macrophages ([2]; 0.25 μM and 2.5 μM C1, 100 ng/mL IFNγ 48 hours): significant decrease in metabolic activity; also recorded: decreased the metabolic of IFNγ (100 ng/ml) significantly compared to plain medium | cell (metabolic) activity, % of positive control ([2]; 2.5 μM C1): 66.48±31.17% | metabolic activity of macrophages stimulated with LPS ([2]; all tested concentrations of C1): decreased the metabolic activity | metabolic activity of PolyIC stimulated macrophages ([2]; higher concentrations of C1 (0.25, 2.5 μM)): did not show a significant difference | ATP induced motility (Microglial cells; 2.5 μM C1, 100 μM ATP): neither changed; also recorded: not altered | microglial motility (Microglial cells; 2.5 μM C1 on both sides of the chamber): reduced in the presence of C1 significantly compared to plain medium (p=0.0018) but not to DMSO; also recorded: did not significantly affect motility compared to the DMSO control, however it did, when compared to the plain medium control | chemotaxis (cells migrating towards C1) (Microglial cells; gradient of 2.5 μM C1, 6 h): increased chemotaxis significantly; also recorded: significantly higher | pole test, time descending the pole ([3]; day 2 after MCAO): 6.592 s | pole test, time to turn 180° ([3]; day 2 after MCAO): 1.175 s | accelerated Rotarod test ([3]; day 2 and 5 after MCAO, vs vehicle): no differences; also recorded: No significant difference | volume of the ischemic lesion (MRI) ([3]; day 3 after MCAO, vs vehicle): did not cause a significant difference; also recorded: No significant difference | pole test, difference to control group ([3]; day 5 after MCAO): No differences were observed | corner test, turns to the left in 10 turns ([3]; day 6 after MCAO): 7.00
